Test results taken from patent US12295936B2, “Immunomodulating urea azalides” (Zoetis Services LLC, priority 2020, dated 2025).
Where two headings read alike, the source gives them in different places.

Experiments:
[1] = system: TNF-α; assay: LPS-stimulated whole bovine blood assay, MSD cytokine detection; type: cell-based; details: Bos taurus, read-out: TNF-α (IC50 μM)
[2] = system: IL-1β; assay: as above; type: cell-based; details: overstimulation of IL-1β, LPS-stimulated bovine whole blood
[3] = system: IL-6; assay: as above; type: cell-based; details: read-out: IL-6 (IC50 μM)
Text: In order to correlate RNA sequencing data to cytokine changes the whole blood assay was utilized. […] The enhancement result represents an overall stimulation of cytokine levels due to cellular stress or potential toxicity with increasing concentrations of the compound, representing a typical bell shape response curve for immunomodulatory activity.

[4] = system: P. multocida 46572; assay: In vivo mouse lung infection challenge model (murine efficacy); set-up: species or system CD-1 female mice; details: 20 mg/kg subcutaneous, P. multocida challenge; harmonized against the comparative vehicle survival rate
Description: The challenge organism was P. multocida 46572. Target challenge concentration was 5×10^2 CFU/mouse. Isolated colonies from overnight growth (37° C. with 5% CO2) on trypticase soy agar (TSA II) blood plates were transferred to room temperature Brain Heart Infusion Broth (BHIB). The broth culture was incubated 3.5-4 hours to approximately mid-log phase of growth, as measured by forward light scatter at 600 nm (OD600, 0.200). The culture was centrifuged to collect the bacterial pellet. The pellet was re-suspended in BHIB and adjusted to provide an approximate concentration of 2.7 log^10 colony forming units (CFU) in 0.04 mL at the highest concentration. The challenge inoculum concentration was confirmed by serial dilutions of the inoculum for CFU enumeration. On Day −5, CD-1 female mice were received. Mice were given standard rodent diet and water ad libitum. On Day 0, bacterial inoculum (0.04 mL) was administered to each mouse (n=36) intranasally. Compounds of the invention were dosed at 20 mg/kg (0.1 mL) in a buffered (˜pH 5.4) propylene glycol, monothioglycerol and water solution by subcutaneous injection. Animals were observed from Days 1-10. The study was terminated on Day 10. In addition, some treatment groups were sampled at 6, 24, and 48 hours post bacterial challenge for RNA sequence analysis of lung tissue.
The murine efficacy model (P. multocida challenge) was optimized, and the treatment group size was powered to be able to observe statistically significant improvement of survival to expected ranges for immunomodulatory compounds. The experimental design was a randomized complete block design. Mice were individually identified and treatment groups comingled within a cage, with every treatment group equally represented across cages. Mortality was the primary variable. Mortality data was analyzed using a generalized mixed model with fixed effect of treatment and random effect of block. Survival time was also analyzed using the SAS PHREG (survival analysis) procedure to examine whether there were significant differences between treatment groups and the control group. Numerous compounds of the invention and M9 (positive control) were tested in this model at a dose of 20 mg/kg. Typical percent survival for no treatment control is in the range of 0-20% based on study to study variation in challenge inoculum and rate of infection. […] Mouse survival for M9 was about 90-100%, further supporting its antibacterial properties against the bacterial strain (Table 3). Survival values presented are harmonized against the comparative vehicle survival rate.

[5] = system: BRD pathogens, M. haemolytica and P. multocida; assay: MIC screening panel of BRD pathogens (antibacterial / non-antibacterial); details: read-out: antibacterial / non-antibacterial (MIC for the BRD pathogens)
[6] = LPS-stimulated bovine whole blood
[7] = Bos taurus, LPS-stimulated bovine whole blood

Row | Compound | IC50 [1, 6] [µM] | IL-1β OS of LPS [2] [µM] | IC50 [3, 7] [µM] | Mouse Murine Percent Survival [4] [%] | IC50 [3, 6] [µM] | MIC [5] [µg/mL] | IC50 [1] [µM] | IC50 ([3]; Bos taurus) [µM]
1 | CC[C@H]1OC(=O)[C@H](C)[C@@H](O[C@H]2C[C@@](C)(OC)[C@](O)(CN3CCN(C)CC3)[C@H](C)O2)[C@H](C)[C@@H](O[C@@H]2O[C@H](C)C[C@H](N(C)C(=O)NC(C)(C)C)[C@H]2O)[C@](C)(O)C[C@@H](C)CN[C@H](C)[C@@H](O)[C@]1(C)O [Example J-3, 3-(tert-butyl)-1-((2S,3R,4S,6R)-2-(((2R,3S,4R,5R,8R,10R,11R,12S,13S,14R)-2-ethyl-3,4,10-trihydroxy-13-(((2R,4R,5S,6S)-5-hydroxy-4-methoxy-4,6-dimethyl-5-((4-methylpiperazin-1-yl)methyl)tetrahydro-2H-pyran-2-yl)oxy)-3,5,8,10,12,14-hexamethyl-15-oxo-1-oxa-6-azacyclopentadecan-11-yl)oxy)-3-hydroxy-6-methyltetrahydro-2H-pyran-4-yl)-1-methylurea] | 200 | 200 | 225 | 25 | – | – | – | –
2 | CC[C@H]1OC(=O)[C@H](C)[C@@H](O[C@H]2C[C@@](C)(OC)[C@@H](O)[C@H](C)O2)[C@H](C)[C@@H](O[C@@H]2O[C@H](C)C[C@H](N(C)C(=O)N(C)c3ccc(C(F)(F)F)cc3)[C@H]2O)[C@](C)(O)C[C@@H](C)CN(C)[C@H](C)[C@@H](O)[C@]1(C)O [Example B-6, 1-((2S,3R,4S,6R)-2-(((2R,3S,4R,5R,8R,10R,11R,12S,13S,14R)-2-ethyl-3,4,10-trihydroxy-13-(((2R,4R,5S,6S)-5-hydroxy-4-methoxy-4,6-dimethyltetrahydro-2H-pyran-2-yl)oxy)-3,5,6,8,10,12,14-heptamethyl-15-oxo-1-oxa-6-azacyclopentadecan-11-yl)oxy)-3-hydroxy-6-methyltetrahydro-2H-pyran-4-yl)-1,3-dimethyl-3-(4-(trifluoromethyl)phenyl)urea] | 12 | 40 | 41 | 1 | – | – | – | –
3 | CC[C@H]1OC(=O)[C@H](C)[C@@H](O[C@H]2C[C@@](C)(OC)[C@@H](O)[C@H](C)O2)[C@H](C)[C@@H](O[C@@H]2O[C@H](C)C[C@H](N(C)C(=O)N(C)c3ccc(C(F)(F)F)cc3)[C@H]2O)[C@](C)(O)C[C@@H](C)CN[C@H](C)[C@@H](O)[C@]1(C)O [Example B-2, 1-((2S,3R,4S,6R)-2-(((2R,3S,4R,5R,8R,10R,11R,12S,13S,4R)-2-ethyl-3,4,10-trihydroxy-13-(((2R,4R,5S,6S)-5-hydroxy-4-methoxy-4,6-dimethyltetrahydro-2H-pyran-2-yl)oxy)-3,5,8,10,12,14-hexamethyl-15-oxo-1-oxa-6-azacyclopentadecan-11-yl)oxy)-3-hydroxy-6-methyltetrahydro-2H-pyran-4-yl)-1,3-dimethyl-3-(4-(trifluoromethyl)phenyl)urea] | – | 40 | – | 28 | 52 | – | – | –
4 | CCCNC[C@]1(O)[C@H](C)O[C@@H](O[C@H]2[C@H](C)[C@@H](O[C@@H]3O[C@H](C)C[C@H](N(C)C(=O)N(c4ccccc4)c4ccccc4)[C@H]3O)[C@](C)(O)C[C@@H](C)CN[C@H](C)[C@@H](O)[C@](C)(O)[C@@H](CC)OC(=O)[C@@H]2C)C[C@@]1(C)OC [Example H-39, 1-((2S,3R,4S,6R)-2-(((2R,3S,4R,5R,8R,10R,11R,12S,13S,14R)-2-ethyl-3,4,10-trihydroxy-13-(((2R,4R,5S,6S)-5-hydroxy-4-methoxy-4,6-dimethyl-5-((propylamino)methyl)tetrahydro-2H-pyran-2-yl)oxy)-3,5,8,10,12,14-hexamethyl-15-oxo-1-oxa-6-azacyclopentadecan-11-yl)oxy)-3-hydroxy-6-methyltetrahydro-2H-pyran-4-yl)-1-methyl-3,3-diphenylurea] | 21 | 6 | 19 | 44 | – | > 64 | – | –
5 | CCCNC[C@]1(O)[C@H](C)O[C@@H](O[C@H]2[C@H](C)[C@@H](O[C@@H]3O[C@H](C)C[C@H](N(C)C(=O)Nc4cccnc4)[C@H]3O)[C@](C)(O)C[C@@H](C)CN[C@H](C)[C@@H](O)[C@](C)(O)[C@@H](CC)OC(=O)[C@@H]2C)C[C@@]1(C)OC [Example H-72, 1-((2S,3R,4S,6R)-2-(((2R,3S,4R,5R,8R,10R,11R,12S,13S,14R)-2-ethyl-3,4,10-trihydroxy-13-(((2R,4R,5S,6S)-5-hydroxy-4-methoxy-4,6-dimethyl-5-((propylamino)methyl)tetrahydro-2H-pyran-2-yl)oxy)-3,5,8,10,12,14-hexamethyl-15-oxo-1-oxa-6-azacyclopentadecan-11-yl)oxy)-3-hydroxy-6-methyltetrahydro-2H-pyran-4-yl)-1-methyl-3-(pyridin-3-yl)urea] | > 500 | >500 | > 500 | 4 | – | – | – | –
6 | CCCNC[C@]1(O)[C@H](C)O[C@@H](O[C@H]2[C@H](C)[C@@H](O[C@@H]3O[C@H](C)C[C@H](N(C)C(=O)Nc4cnn(C)c4)[C@H]3O)[C@](C)(O)C[C@@H](C)CN[C@H](C)[C@@H](O)[C@](C)(O)[C@@H](CC)OC(=O)[C@@H]2C)C[C@@]1(C)OC [Example H-74, 1-((2S,3R,4S,6R)-2-(((2R,3S,4R,5R,8R,10R,11R,12S,13S,14R)-2-ethyl-3,4,10-trihydroxy-13-(((2R,4R,5S,6S)-5-hydroxy-4-methoxy-4,6-dimethyl-5-((propylamino)methyl)tetrahydro-2H-pyran-2-yl)oxy)-3,5,8,10,12,14-hexamethyl-15-oxo-1-oxa-6-azacyclopentadecan-11-yl)oxy)-3-hydroxy-6-methyltetrahydro-2H-pyran-4-yl)-1-methyl-3-(1-methyl-1H-pyrazol-4-yl)urea] | – | >500 | – | 11 | – | – | ~600 | > 500
7 | CC[C@H]1OC(=O)[C@H](C)[C@@H](O[C@H]2C[C@@](C)(OC)[C@](O)(CN3CCN(C)CC3)[C@H](C)O2)[C@H](C)[C@@H](O[C@@H]2O[C@H](C)C[C@H](N(C)C(=O)Nc3ccccc3)[C@H]2O)[C@](C)(O)C[C@@H](C)CN[C@H](C)[C@@H](O)[C@]1(C)O [Example J-7, 1-((2S,3R,4S,6R)-2-(((2R,3S,4R,5R,8R,10R,11R,12S,13S,14R)-2-ethyl-3,4,10-trihydroxy-13-(((2R,4R,5S,6S)-5-hydroxy-4-methoxy-4,6-dimethyl-5-((4-methylpiperazin-1-yl)methyl)tetrahydro-2H-pyran-2-yl)oxy)-3,5,8,10,12,14-hexamethyl-15-oxo-1-oxa-6-azacyclopentadecan-11-yl)oxy)-3-hydroxy-6-methyltetrahydro-2H-pyran-4-yl)-1-methyl-3-phenylurea] | 200 | 200 | > 500 | 39 | – | – | – | –
8 | CCCNC[C@]1(O)[C@H](C)O[C@@H](O[C@H]2[C@H](C)[C@@H](O[C@@H]3O[C@H](C)C[C@H](N(C)C(=O)Nc4ccc(F)cc4)[C@H]3O)[C@](C)(O)C[C@@H](C)CN[C@H](C)[C@@H](O)[C@](C)(O)[C@@H](CC)OC(=O)[C@@H]2C)C[C@@]1(C)OC [Example H-83, 1-((2S,3R,4S,6R)-2-(((2R,3S,4R,5R,8R,10R,11R,12S,13S,14R)-2-ethyl-3,4,10-trihydroxy-13-(((2R,4R,5S,6S)-5-hydroxy-4-methoxy-4,6-dimethyl-5-((propylamino)methyl)tetrahydro-2H-pyran-2-yl)oxy)-3,5,8,10,12,14-hexamethyl-15-oxo-1-oxa-6-azacyclopentadecan-11-yl)oxy)-3-hydroxy-6-methyltetrahydro-2H-pyran-4-yl)-3-(4-fluorophenyl)-1-methylurea] | 350 | 80 | – | 11 | – | > 64 | – | –
